Measurements from US20160031909A1, “PORPHYRAZINE OPTICAL AND DUAL OPTICAL/ MR CONTRAST AND THERAPEUTIC AGENTS” (HOFFMAN/BARRETT, LLC, priority 2013, published 2016).

Legend:
[1] = Relaxation time measurements (longitudinal relaxivity r1); format: physicochemical
Excerpt: The efficiency of a contrast agent in reducing the longitudinal relaxation time of water protons is defined in terms as relaxivity (mM^−1 s^−1) (14). It has been predicted by Solomon-Bloembergen-Morgan theory that a slow molecule tumbling of an MRI agent causes an increase in rotational correlation time, Tr, which in turn results in increase in relaxivity (14, 15). A common approach to increase relaxivity by slowing down the molecular tumbling is to attach Gd(III) complexes to a macromolecule through rigid linkages (12,16). The relaxivity of the monomeric DOTA-Gd(III) (DOTA is 1,4,7,10-tetraazacyclododecane-N,N,N″,N″-tetraacetic acid) used in the clinic is shown for comparison (17). […] Both the Zn-Pz-Gd(III) and Cu-Pz-Gd(III) had higher longitudinal relaxivity than DOTAGd(III).
Solutions of M-Pz-Gd(III) (M=Zn, Cu) conjugates were dissolved in 500 μL of filtered, deionized H20 (18.2 MΩ·cm) for T1 acquisition. Relaxation times were measured on a Bruker mq60 NMRanalyzer equipped with Minispec v2.51 Rev.00/NT software (Bruker Biospin, Billerica, Mass., USA) operating at 1.41 T (60 MHz) and 37° C. T1 relaxation times were measured using an inversion recovery pulse sequence (T1—ir_mb) using the following parameters: 4 scans per point, 10 data points for fitting, mono-exponential curve fitting, phase cycling, 10 ms first pulse separation, and a recycle delay and final pulse separation≧5 T1. The gadolinium concentrations of each solution were determined using ICP-MS. The inverse of the longitudinal relaxation time (1/ T1, s^−1) was plotted against gadolinium concentration (mM) and fitted to a straight line with an R^2>0.99. The slope of the fitted line was recorded as the relaxivity, r1.

[2] = Octanol-water partition coefficients by ICP-MS; format: physicochemical; conditions: 1:1 water:1-octanol, 48 hours, Gd by ICP-MS
Procedure: Octanol-water partition coefficients (log P) were measured by ICP-MS to determine the hydrophilicity of the Pz-Gd(III) conjugates (4d, 18). The hydrophilicity of a molecule dictates cellular permeability where a balance in amphiphilicity is desired for ease of aqueous administration and maximum cellular uptake (19). Cu-Pz-Gd(III) is slightly more hydrophobic than Zn-Pz-Gd(III) and both conjugates are more hydrophobic than DOTA-Gd(III).
DOTA-Gd(I I I), Zn-Pz-Gd(III), and Cu-Pz-Gd(III) (0.5 mg) were dissolved in 1 mL of a 1:1 mixture of water:1-octanol, respectively. After shaking for 30 seconds, these tubes were placed on a rotator for gentle mixing to equilibrate for 48 hours. Gd(III) concentration in each layer was determined by ICP-MS. Partition coefficients were calculated from the equation log P=log(Co/Cw), where log P is the logarithm of the partition coefficient, Co is the concentration of Gd in the 1-octanol layer, and Cw is the concentration of Gd in the water layer.

Cu[Pz(C19H28N8O7Gd)2]. Pz=18,21-bis(2-(1H-1,2,3-triazole-4-yl) ethoxy)-tris-[1,4-dioxino[g,l,q](2R,3R)-2,3-dimethoxy-2,3-dimethyll 25H,27H-benzo[b]porphyrazine; C19H28N8O7Gd=N-methyl-2-aminoacetamide-4,7,10-tris(carboxymethyl)-1,4,7,10-tetraazacyclododecylgadolinium(III)) [Cu-Pz-Gd(III)]
solution-phase ionic relaxivity relative to DOTA-Gd(III) ([1]; compared with clinically-used monomeric DOTA-Gd(III)): about four times greater | Ionic r1 ([1]; per Gd(III), water, 1.41 T (60 MHz), 37° C.): 11.5 mM^−1 S^−1 | Molecular r1 ([1]; per molecule (2 Gd(III)), water, 1.41 T (60 MHz), 37° C.): 23.0 mM^−1 S^−1 | solution phase molecular relaxivity (r1) ([1]; text of b56, unit inferred): 23 mM⁻¹ s⁻¹ | log P [2]: −2.41
